These results are taken from publication PMC3524758, “Development and evaluation of a novel radioiodinated vesamicol analog as a sigma receptor imaging agent” (EJNMMI Research, 2012).

In series [1] the target is T1, sigma-1 receptor (Rattus norvegicus, UniProt Q9R0C9).
T1 construct: from tissue; host or cells: rat brain without cerebellum (male Sprague-Dawley rats)
Description: Sigma-1 receptor competitive binding assay ((+)-[3H]pentazocine, rat cerebral membranes). The method, then: (§1) Animal experimental protocols were approved by the Committee on Animal Experimentation of Kanazawa University. Experiments with animals were conducted in accordance with the Guidelines for the Care and Use of Laboratory Animals of Kanazawa University. The animals were housed with free access to food and water at 23°C with a 12-h alternating light/dark schedule. The rat brain and liver membranes for binding experiments were prepared from rat brains without cerebellum and rat liver in male Sprague–Dawley rats (200 g, Japan SLC, Inc., Hamamatsu, Japan), respectively, using a method described previously.
A sigma-1 receptor binding assay was performed using the following method. […] The incubated samples were quickly diluted with 5 mL of ice-cold Tris–HCl (pH 7.8) buffer followed by rapid filtration through Whatman Grade GF/B glass fiber filters (GE Healthcare UK Ltd., Amersham, UK) presoaked in 0.5% polyethylenimine using a cell harvester (Brandel, Gaithersburg, MD, USA). Filters were washed three times with 5 mL of ice-cold buffer. […] Radioactivity retained on the filters was measured with a liquid scintillation counter (LSC-5100; Aloka, Tokyo, Japan).

The target of series [2] is T2, sigma-2 receptor (Rattus norvegicus, UniProt Q5U3Y7).
T2 construct: from tissue; host or cells: rat liver (male Sprague-Dawley rats)
T2 sequence (Q5U3Y7 1-176): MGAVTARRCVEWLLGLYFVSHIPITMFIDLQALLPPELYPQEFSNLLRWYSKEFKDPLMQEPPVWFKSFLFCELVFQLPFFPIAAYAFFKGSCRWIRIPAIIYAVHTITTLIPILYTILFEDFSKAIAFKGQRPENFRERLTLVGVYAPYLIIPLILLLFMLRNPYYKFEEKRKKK
Description: Sigma-2 receptor competitive binding assay ([3H]DTG, rat liver membranes, (+)-pentazocine mask). The method, then:
as §1
A sigma-2 receptor binding assay was performed using the following method. […] The incubated samples were treated in the same manner as described for the sigma-1 receptor binding assays.

Series [3] can be described thus: Biodistribution in DU-145 tumor-bearing mice. Type of series: in vivo. Conditions: i.v., mean (SD). The protocol:
(+)-^131I]pIV was prepared using a method described previously. To produce tumors, approximately 5 × 10^6 of the prepared DU-145 cells was injected subcutaneously into the right dorsum of 4-week-old male BALB/c nude mice (15 to 19 g, Japan SLC, Inc.). Biodistribution experiments were performed at approximately 14- to 21-day post-inoculation, i.e., when tumors reached a palpable size. Groups of four mice were intravenously administered with 100 μL of a mixed solution of (+)-^125I]IV-OH (37 kBq) and (+)-^131I]pIV (37 kBq). At 10-min, 1-, 3-, and 24-h post-injections, the mice were killed. Tissues of interest were removed and weighed, and radioactivity counts were determined with an auto well gamma counter and corrected for background radiation. A window from 16 to 71 keV was used for measuring ^125I and one from 300 to 433 keV for ^131I. The crossover of ^125I activity into the ^131I channel was negligible. Correlation factors to eliminate any crossover of ^131I activity into ^125I were determined by measuring the ^131I standard in both windows.

The subject of series [4] is sigma receptors. Description: Blocking studies with excess sigma ligand in DU-145 tumor-bearing mice. Type of series: in vivo. Conditions: 10 μmol/kg i.v. co-injection, 1-h post-injection. The method, then: At 1-h post-injection, the mice were killed, and biodistribution experiments were conducted as described above.
The mark [5] stands for this setting: rat cerebral membranes, 5-nM (+)-[3H]pentazocine, Ki from IC50, means (SEM) of three or four experiments.
Setting [6] is: rat liver membranes, 5-nM [3H]DTG, 1-μM (+)-pentazocine mask, Ki from IC50, means (SEM) of three or four experiments.

Read-outs that look alike come from different tables or passages of the source.

In general, Ki refers to a dissociation constant, usually derived from enzyme kinetics or from competition with a known ligand.

T1 sequence (Q9R0C9 whole entry): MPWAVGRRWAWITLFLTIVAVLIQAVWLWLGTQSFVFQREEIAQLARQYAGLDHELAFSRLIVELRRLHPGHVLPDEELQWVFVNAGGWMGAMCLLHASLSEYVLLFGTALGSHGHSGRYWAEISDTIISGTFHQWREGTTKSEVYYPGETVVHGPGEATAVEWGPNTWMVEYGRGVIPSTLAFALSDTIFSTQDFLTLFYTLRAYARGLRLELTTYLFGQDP

Take `Oc1ccc(C2CCN(C3CCCC[C@H]3O)CC2)cc1I` (single isomer, unassigned; (+)) [(+)-IV-OH, (+)-4-[1-(2-hydroxycyclohexyl)piperidine-4-yl]-2-iodophenol]: the inhibitory constant (Ki) in series [1] stood at 22.8 nM; in series [2], 147 nM. For the same molecule, the “selectivity for sigma-1 subtype over sigma-2” value in series [1] (in vitro binding assay) is on record as “approximately 6.4 fold”.
In the case of `Oc1ccc(C2CCN(C3CCCCC3O)CC2)cc1` (single isomer, unassigned; (+)) [(+)-Ves-OH], the values for the inhibitory constant (Ki) in series [1] (setting [5]) and in series [2] (setting [6]) were 179 nM and 97.2 nM, respectively.
In the case of `OC1CCCCC1N1CCC(c2ccc([131I])cc2)CC1` (single isomer, unassigned; (+)) [(+)-[^131I]pIV, reference compound], in series [3] (10 min post-injection), the “Biodistribution of radioactivity, Blood” value is listed as 0.45 (0.03) percent injected dose per gram tissue; the “Biodistribution of radioactivity, Brain” value is 6.02 (0.74) percent injected dose per gram tissue; the “Biodistribution of radioactivity, Heart” value is listed as 8.66 (0.81) percent injected dose per gram tissue; the “Biodistribution of radioactivity, Intestine” value (shortened to “Biodistribution … Intestine”) is on record as 4.31 (0.78) percent injected dose per gram tissue. Further, in series [3] (10 min post-injection), the “Biodistribution of radioactivity, Kidney” value is listed as 18.47 (1.59) percent injected dose per gram tissue; the “Biodistribution of radioactivity, Liver” value is reported as 9.83 (0.39) percent injected dose per gram tissue; the “Biodistribution of radioactivity, Lung” value is given as 26.10 (3.39) percent injected dose per gram tissue; the “Biodistribution of radioactivity, Muscle” value was 2.03 (0.53) percent injected dose per gram tissue. In addition, in series [3] (10 min post-injection), the “Biodistribution of radioactivity, Pancreas” value (“Biodistribution … Pancreas” below) was 16.58 (1.82) percent injected dose per gram tissue; the “Biodistribution of radioactivity, Spleen” value is 8.12 (1.09) percent injected dose per gram tissue; the “Biodistribution of radioactivity, Stomach” value (“Biodistribution … Stomach” for short) was 1.07 (0.32) percent injected dose; the “Biodistribution of radioactivity, Tumor” value was 7.20 (0.40) percent injected dose per gram tissue. Further, in series [3] (1 h post-injection), the “Biodistribution of radioactivity, Blood” value is given as 0.28 (0.02) percent injected dose per gram tissue; the “Biodistribution of radioactivity, Brain” value is recorded as 6.47 (0.73) percent injected dose per gram tissue; the “Biodistribution of radioactivity, Heart” value is 5.55 (0.70) percent injected dose per gram tissue; the “Biodistribution … Intestine” value was 5.14 (0.12) percent injected dose per gram tissue. Moreover, in series [3] (1 h post-injection), the “Biodistribution of radioactivity, Kidney” value is given as 11.72 (1.90) percent injected dose per gram tissue; the “Biodistribution of radioactivity, Liver” value is on record as 13.31 (1.25) percent injected dose per gram tissue; the “Biodistribution of radioactivity, Lung” value is on record as 13.13 (3.28) percent injected dose per gram tissue; the “Biodistribution of radioactivity, Muscle” value is reported as 1.62 (0.22) percent injected dose per gram tissue. In series [3] (1 h post-injection), the “Biodistribution … Pancreas” value is reported as 21.94 (2.50) percent injected dose per gram tissue; the “Biodistribution of radioactivity, Spleen” value was 8.99 (1.00) percent injected dose per gram tissue; the “Biodistribution … Stomach” value was 0.73 (0.26) percent injected dose; the “Biodistribution of radioactivity, Tumor” value is 5.79 (0.37) percent injected dose per gram tissue. Besides, in series [3] (3 h post-injection), the “Biodistribution of radioactivity, Blood” value is 0.17 (0.01) percent injected dose per gram tissue; the “Biodistribution of radioactivity, Brain” value is on record as 4.12 (0.30) percent injected dose per gram tissue; the “Biodistribution of radioactivity, Heart” value is 2.11 (0.37) percent injected dose per gram tissue; the “Biodistribution … Intestine” value is given as 3.20 (0.13) percent injected dose per gram tissue. Moreover, in series [3] (3 h post-injection), the “Biodistribution of radioactivity, Kidney” value is 7.37 (0.89) percent injected dose per gram tissue; the “Biodistribution of radioactivity, Liver” value was 13.05 (0.46) percent injected dose per gram tissue; the “Biodistribution of radioactivity, Lung” value is given as 6.59 (0.56) percent injected dose per gram tissue; the “Biodistribution of radioactivity, Muscle” value is on record as 0.72 (0.29) percent injected dose per gram tissue. Besides, in series [3] (3 h post-injection), the “Biodistribution … Pancreas” value is on record as 27.35 (0.24) percent injected dose per gram tissue; the “Biodistribution of radioactivity, Spleen” value is given as 4.04 (0.30) percent injected dose per gram tissue; the “Biodistribution … Stomach” value is given as 0.62 (0.19) percent injected dose; the “Biodistribution of radioactivity, Tumor” value is 6.46 (3.42) percent injected dose per gram tissue. For the same molecule, in series [3] (24 h post-injection), the “Biodistribution of radioactivity, Brain” value is on record as 2.22 (0.10) percent injected dose per gram tissue; the “Biodistribution of radioactivity, Heart” value is on record as 0.96 (0.07) percent injected dose per gram tissue; the “Biodistribution … Intestine” value is 2.59 (0.24) percent injected dose per gram tissue; the “Biodistribution of radioactivity, Kidney” value is 6.15 (0.30) percent injected dose per gram tissue. In series [3] (24 h post-injection), the “Biodistribution of radioactivity, Liver” value is given as 10.28 (0.59) percent injected dose per gram tissue; the “Biodistribution of radioactivity, Lung” value was 3.01 (0.46) percent injected dose per gram tissue; the “Biodistribution of radioactivity, Muscle” value is on record as 0.42 (0.03) percent injected dose per gram tissue; the “Biodistribution … Pancreas” value is reported as 27.36 (0.70) percent injected dose per gram tissue. Besides, in series [3] (24 h post-injection), the “Biodistribution of radioactivity, Spleen” value is on record as 2.52 (0.23) percent injected dose per gram tissue; the “Biodistribution … Stomach” value is given as 0.49 (0.06) percent injected dose; the “Biodistribution of radioactivity, Tumor” value is 6.81 (2.60) percent injected dose per gram tissue.
For `Oc1ccc(C2CCN(C3CCCCC3O)CC2)cc1I` (single isomer, unassigned; (-)) [(−)-IV-OH, (−)-enantiomer of 4-[1-(2-hydroxycyclohexyl)piperidine-4-yl]-2-iodophenol], the Ki came out at 45.5 nM in series [1] (setting [5]) and 166 nM in series [2] (setting [6]).
As to `COc1ccc(CCN2CCN(CCCc3ccccc3)CC2)cc1OC` [SA4503], in series [4], the “effect of co-injected ligand on brain to blood uptake ratio of (+)-[^125I]IV-OH” value is recorded as “significant decrease”, the “effect of co-injected ligand on liver uptake of (+)-[^125I]IV-OH” value is listed as “did not inhibit”, the “effect of co-injected ligand on pancreas to blood uptake ratio of (+)-[^125I]IV-OH” value is on record as “significant decrease” and the “effect of co-injected ligand on tumor to blood uptake ratio of (+)-[^125I]IV-OH” value is listed as “significant decrease”.
Consider (+)-Vesamicol [reference compound], for which affinity in series [2] (setting [6]) was put at a Ki of 159 nM.
